Here are results for one molecule from paper PMC7136958, “Targeting the pregnane X receptor using microbial metabolite mimicry” (EMBO Molecular Medicine, 2020).

One series concerns the target T1, wild-type PXR.1 (Homo sapiens, UniProt O75469).
T1 construct: expressed in transfected cells; host or cells: HEK293T
The series can be described thus: PXR luciferase reporter assay in HEK293T cells, wild-type PXR.1. The series is classed as cell-based. The following applies: 10 μM, replicate wells. As to the method: After 24‐h transfection using Lipofectamine® LTX ([…] of plasmid), cells were exposed to FKK5 for 24 h. […] The data are expressed as mean ± SD RLU (relative light units from luciferase assay) normalized to β‐Gal activity in the same well. Differences were tested using 2‐way ANOVA with Tukey's multiple comparison test, and P < 0.05 was considered significant (*).
(In a reporter assay the amount or activity of a reporter protein is the signal.)

Series [1] can be described thus: Solubility of FKK6 in 10% DMSO. The series is classed as physicochemical. Particulars: aqueous, aqueous with cosolvent or surfactant or cyclodextrin, room temperature, read-out: maximal solubility (saturation concentration). Here is the method:
FKK6 was solubilized to saturation concentrations (~ 500 μM) at room temperature in 10% DMSO (DMSO maximum tolerated dose in mice is ~ 2.5 g/kg/day for 35 consecutive days) (Caujolle et al, 1967a; Brayton, 1986).

In a further series the target is T2, HDAC1 (Homo sapiens, UniProt Q13547).
T2 construct: purchased Reaction Biology Corp
The series can be described thus: HDAC fluorescent activity assay. Particulars: substrate Peptide (Ac), replicates. The series is classed as biochemical. Here is the method: (§1) The following […] assays (HDAC, SIRT1, PRMT1, PARP1, p300, pCAF) were performed by Reaction Biology Corp. FKK6 was screened at a single concentration of 10 μM in duplicate in two separate experiments. The appropriate controls for the individual assays are published. […]
(§2) The Histone Deacetylase (HDAC) fluorescent activity assay (HDAC1-3) is based on the using 2X purified human enzyme mixed with the reaction buffer (50 mM Tris-HCl pH 8, 137 mM NaCl, 2.7 mM KCl, and 1 mM MgCl2, 1 mg/mL fresh BSA and 1% fresh DMSO) and then compounds (in 100% DMSO) are titrated in using Acoustic Technology.
(§3) The 2X HDAC substrate is a fluorogenic acetylated peptide from p53 (residues 379 - 38 2 RHKK(Ac)AMC) which is mixed in with the enzyme-compound complex and incubated for 1-2 h at 30 °C. In the development step, a proprietary developer with trichostatin A (or TMP269) is added to stop the reaction and to generate fluorescent color which is read using an EnVision Multilabel Plate Reader (Perkin Elmer) (Ex 360 nm/ Em 460 nm). For all enzyme activity assays, the percentage of enzyme activity (relative to DMSO controls) and IC50 values were calculated using GraphPad Prism 4 program (sigmoidal dose response equations). […]
(§4) SMCT solution (0.32 M sucrose, 10 mM Tris -HCl, 1 mM MgCl2, 1 mM CaCl2, 0.1 mM PMSF and freshly prepared 1 mM DTT at pH 7.4) once in the presence of 0.25% Triton X-100 and once in its

The target of a further series is T3, HDAC2 (Homo sapiens, UniProt Q92769).
T3 construct: purchased Reaction Biology Corp
The series can be described thus: HDAC fluorescent activity assay. The following applies: substrate Peptide (Ac), replicates. The series is classed as biochemical. Here is the method: as §1, §2, §3, §4

The target in another series is T4, HDAC3 (Homo sapiens, UniProt O15379).
T4 construct: purchased Reaction Biology Corp
The series can be described thus: HDAC fluorescent activity assay. The series is classed as biochemical. Particulars: substrate Peptide (Ac), replicates. As to the method: as §1, §2, §3, §4

The mark [2] stands for this setting: read-out: % Enzyme Activity to DMSO controls.

The structures appear in SMILES notation. In brackets after ≈: the same amount, converted by molar mass. Several values for one entry are separate records, joined by “and”; a condition that tells them apart may be missing. Equal values may be shown once.

T1 sequence (O75469 whole entry): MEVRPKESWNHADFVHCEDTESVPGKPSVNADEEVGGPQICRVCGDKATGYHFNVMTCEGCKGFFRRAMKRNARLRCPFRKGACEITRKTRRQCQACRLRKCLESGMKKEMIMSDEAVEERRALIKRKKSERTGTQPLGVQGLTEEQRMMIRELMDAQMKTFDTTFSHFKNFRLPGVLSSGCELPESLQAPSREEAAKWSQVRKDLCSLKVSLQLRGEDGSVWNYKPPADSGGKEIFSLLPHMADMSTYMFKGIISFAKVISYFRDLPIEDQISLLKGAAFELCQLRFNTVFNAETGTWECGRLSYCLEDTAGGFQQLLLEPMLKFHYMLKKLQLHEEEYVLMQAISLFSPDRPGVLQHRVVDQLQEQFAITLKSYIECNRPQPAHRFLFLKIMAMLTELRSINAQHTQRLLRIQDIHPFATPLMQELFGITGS
T3 sequence (Q92769 whole entry): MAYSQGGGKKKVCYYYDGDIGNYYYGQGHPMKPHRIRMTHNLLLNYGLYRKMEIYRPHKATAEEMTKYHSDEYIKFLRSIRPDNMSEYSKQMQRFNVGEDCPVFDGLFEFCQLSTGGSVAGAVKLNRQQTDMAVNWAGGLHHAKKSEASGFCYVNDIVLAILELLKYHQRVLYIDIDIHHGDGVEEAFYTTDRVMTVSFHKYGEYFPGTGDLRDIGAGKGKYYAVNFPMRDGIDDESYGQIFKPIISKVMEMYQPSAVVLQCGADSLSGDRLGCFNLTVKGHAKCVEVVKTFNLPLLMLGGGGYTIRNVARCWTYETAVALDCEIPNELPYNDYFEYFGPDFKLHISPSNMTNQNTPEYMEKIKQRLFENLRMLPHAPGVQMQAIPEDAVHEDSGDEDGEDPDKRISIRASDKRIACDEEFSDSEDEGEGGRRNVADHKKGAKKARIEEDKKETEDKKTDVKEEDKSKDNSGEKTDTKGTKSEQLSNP
T2 sequence (Q13547 whole entry): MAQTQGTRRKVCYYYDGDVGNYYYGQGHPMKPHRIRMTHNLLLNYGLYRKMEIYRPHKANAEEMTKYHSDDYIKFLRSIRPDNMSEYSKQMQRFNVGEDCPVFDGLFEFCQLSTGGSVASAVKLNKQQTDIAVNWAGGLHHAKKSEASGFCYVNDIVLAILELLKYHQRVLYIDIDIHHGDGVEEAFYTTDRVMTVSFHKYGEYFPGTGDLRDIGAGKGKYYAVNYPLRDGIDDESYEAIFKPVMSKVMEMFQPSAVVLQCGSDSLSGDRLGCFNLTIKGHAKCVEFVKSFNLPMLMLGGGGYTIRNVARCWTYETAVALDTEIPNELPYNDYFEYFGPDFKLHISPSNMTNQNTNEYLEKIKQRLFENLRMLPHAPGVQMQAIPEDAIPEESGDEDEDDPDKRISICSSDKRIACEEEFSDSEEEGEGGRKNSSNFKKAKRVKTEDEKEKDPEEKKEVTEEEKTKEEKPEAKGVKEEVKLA
T4 sequence (O15379 whole entry): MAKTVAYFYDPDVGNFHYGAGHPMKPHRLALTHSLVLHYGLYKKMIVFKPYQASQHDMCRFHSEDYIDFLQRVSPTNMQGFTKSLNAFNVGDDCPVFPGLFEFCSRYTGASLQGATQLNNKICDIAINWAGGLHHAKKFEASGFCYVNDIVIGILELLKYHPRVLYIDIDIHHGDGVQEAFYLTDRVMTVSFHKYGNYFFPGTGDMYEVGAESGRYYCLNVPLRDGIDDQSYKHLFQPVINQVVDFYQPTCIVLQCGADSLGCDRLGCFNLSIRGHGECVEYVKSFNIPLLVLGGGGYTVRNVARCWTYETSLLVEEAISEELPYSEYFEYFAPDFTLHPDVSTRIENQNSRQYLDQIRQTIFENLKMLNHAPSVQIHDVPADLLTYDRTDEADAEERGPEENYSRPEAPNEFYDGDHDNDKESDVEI
T4 sequence (Q9Y618 395-489 partner limits assumed): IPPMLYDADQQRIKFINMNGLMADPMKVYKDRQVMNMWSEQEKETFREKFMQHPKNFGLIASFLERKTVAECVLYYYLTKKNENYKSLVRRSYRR

Turning to `C#CCC(O)(c1ccncc1)c1cc2ccccc2n1S(=O)(=O)c1ccccc1` (centres unmarked) [FKK6], on wild-type PXR.1, the “PXR reporter activity, RLU/B-Gal” value is 49029.5 RLU/B-Gal and 34153.4 RLU/B-Gal and 41512.1 RLU/B-Gal and 34385.8 RLU/B-Gal. Moreover, the solubility in series [1] is around 500 µM (≈ 201 µg/mL). The “% Enzyme Activity to DMSO controls” value was 101.46% and 89.76% and 86.7% at HDAC1 (10 μM); 78.19% and 83.24% and 88.71% at HDAC2 (10 μM); 116.9% and 114.05% and 107.82% on HDAC3 (10 μM). The remaining activity at 10 µM is 106% at HDAC1 (setting [2]), 86.3% on HDAC2 (setting [2]) and 122% at HDAC3 (setting [2]).
